Source: patent publication US20040192673A1, “N-aroyl cyclic amine derivatives as orexin receptor antagonists” (priority 2001, published 2004)

Tests used:
[1] = tested on: rat; assay: Rat sleep/EEG studies; format: in vivo; conditions: central administration at the onset of the normal sleep period
Excerpt: Therefore antagonists of its receptor may be useful in the treatment of sleep disorders including insomnia.

[2] = tested on: freely-feeding rats; conditions: central administration, 4 hour time period; cited from earlier work

Substance: orexin-A: ligand for the orexin-1 receptor, an agonist of the orexin receptors; 33-residue peptide, sequence in b167 (QPLPDCCRQKTCSCRLYELLHGAGNHAAGILTL; not fully specified; Orexin-A; UniProt O43612 34-66, looked up)
- arousal (sleep/EEG) [1]: dose-related increase in arousal
- increase in food intake over control rats receiving vehicle [2]: approximately four-fold
